Experimental data from EPA's CvTdb concentration-time database (doi:10.5012/bkcs.2003.24.5.559).

Test system: rat
Assay: concentration in urine after dosing
Settings: dosed: benzo(a)pyrene, 20 mg/kg, iv, male, Sprague-Dawley

Oc1ccc2ccc3cc4ccccc4c4ccc1c2c34 [1-hydroxybenzo(a)pyrene]
Settings | concentration in urine [ng/mL]
3.699 h | 0.371
7.645 h | 0.0295
10.85 h | 0.0167
22.69 h | 1.58
28.98 h | 3.02
34.9 h | 5.24
46.73 h | 2.31
52.9 h | 2.18
58.94 h | 1.1
77.07 h | 0.514
94.7 h | 0.0397

Oc1ccc2ccc3c4ccccc4cc4ccc1c2c43 [3-hydroxybenzo(a)pyrene]
Settings | concentration in urine [ng/mL]
4.071 h | 0.145
8.015 h | 0.0241
23.16 h | 5.11
28.88 h | 6.99
35.11 h | 8.63
47.07 h | 6.84
52.93 h | 6.1
59.03 h | 2.19
76.84 h | 0.0482
95.04 h | 0.289

c1ccc2c(c1)cc1ccc3cccc4ccc2c1c34 [benzo(a)pyrene]
Settings | concentration in urine [ng/mL]
4.13 h | 3.27
7.866 h | 0.98
11.07 h | 0.98
23.06 h | 10.1
29.09 h | 126
35.2 h | 1.96
47.07 h | 0.98
52.8 h | 0.654
58.8 h | 0.654
76.8 h | 0.654
94.93 h | 0.654
